From patent publication US4117121A, “Method of increasing bile flow and decreasing lipid levels” (Hoffmann-La Roche Inc., priority 1977, dated 1978) come the findings set out here.

In assay [1] the test system is cholesterol-7α-hydroxylase. The experiment in a line: Effect on activity of cholesterol-7α-hydroxylase. The following applies: in words.
For assay [2], the system named is bile flow. Description: Comparative effect on bile flow (Example 2). The class given is in vivo, female rats. The following applies: 100 mg intragastrically, vs average bile of two hours preceding treatment. The procedure:
Female rats, weighing approximately 250 g, were fasted overnight prior to surgery; water was allowed ad libitum. The surgical procedures involving cannulation of the upper part of the common bile duct were carried out under Penthrane anesthesia. A catheter placed in the avascular part of the stomach was used for intragastric administration of emulsion; another catheter was placed in the duodenum. After surgery the rats were kept in restraining cages. Intraduodenal infusion of bile (collected previously from donors) was then started at the rate of 0.9 ml/hr. The infusion pressure was kept constant by means of a pump. Hydration was maintained by allowing the animals to drink saline ad libitum.
All rats were allowed~20 hours to recover from surgery. During this post-surgical period bile was collected in pooled samples of 16-18 hours. Having achieved steady hourly flow, the two samples obtained prior to the actual experiment were collected individually and considered as a control standard for each rat.
Bile samples were collected hourly, over a 24-hour period. The volume was measured to the nearest 0.1 ml.
The values in Table III were expressed for the purpose of the analysis, as a percent change from average bile collected in the two hours immediately preceding treatment.

In assay [3] the test system is bile flow. Description: Stimulation of bile flow (Example 1). The class given is in vivo, female albino rats (Charles River). Conditions: 100 mg orally, over the Na-TC control. An excerpt:
(§1) In these studies female albino rats (Charles River), weighing 300 ± 10 g were kept on a Purina chow diet ad libitum until the time of operation. […] This preparation enabled the production of lymph at a constant rate, the infusion of a bile salt, and the simultaneous collection of bile.
(§2) All animals received, after operation, a continuous duo denal infusion of sodium taurocholate (Na-TC) in 0.85% NaCl. One day after operation, the rats were given, by stomach intubation, an emulsion containing about 4% triolein, 20 μC of 4-^14 C-cholesterol (Specific Activity 61.7 mC/mM, 159 μC/mg), 2 mg of cholesterol, in addition to protein, carbohydrate, and saline. Both the Na-TC and the cholesterol carrier employed gave a single spot on either thin layer or glass fiber paper chromatograph so no further purification was attempted. The commercial glyceryl trioleate contained a large percentage of di- and monoolein. Triolein was, therefore, purified by passage through a silicic acid column; the final product gave a single spot on either glass fiber paper or thin layer chromatography.
(§3) To 4 ml of this emulsion was added 100 mg of either Na-TC (control group) or compounds A through D. This mixture was given orally to the animals.
(§4) The sampling of thoracic duct lymph and of bile was divided into two collecting periods, 0-8 and 9-24 h after emulsion administration.
In this table the results are expressed as the % increase in bile flow over the control.

The subject of assay [4] is intestinal absorbtion of CHOLESTEROL
The experiment in a line: Intestinal absorption of cholesterol: appearance of 4-14C-cholesterol in thoracic duct lymph. Conditions: 100 mg orally, vs Na-TC control, 14C-cholesterol in lymph; for % decrease of cholesterol, 0-8 hours: 0-8 hours after emulsion; for % decrease of cholesterol, 9-24 hours: 9-24 hours after emulsion. The class given is in vivo, female albino rats (Charles River).
Excerpt: as §1, §2, §3, §4
Lymph specimens were lyophilized and the lipids in the residue were extracted with ethanol-isopropyl ether, 2:1 parts by volume, by procedure described in Gallo-Torres, et al; Biophys. Acta, 176 605-615 (1969). An aliquot of the lipid extract was placed on a small piece of glass fiber paper and counted. Another aliquot was used for the separation of cholesterol and its esters by glass fiber paper chromatography.
The effect of compounds A through D derivatives on the appearance of total ^14 C-cholesterol in the thoracic duct lymph of rats is summarized in Table I. Of the dose administered to the control animals, 5 × 10^5 dpm were recovered in the first 8 h and 3.4 × 10^6 dpm in the period of 9-24 h following administration of the emulsion. […] The tolerance of cholesterol in Table I is the % decrease in the 4-^14 C-cholesterol over the control appearing in the lymph during the specified period.

In another assay the target is T1, rat pancreatic lipase (Rattus norvegicus, UniProt P27657).
T1 sequence (P27657 17-465): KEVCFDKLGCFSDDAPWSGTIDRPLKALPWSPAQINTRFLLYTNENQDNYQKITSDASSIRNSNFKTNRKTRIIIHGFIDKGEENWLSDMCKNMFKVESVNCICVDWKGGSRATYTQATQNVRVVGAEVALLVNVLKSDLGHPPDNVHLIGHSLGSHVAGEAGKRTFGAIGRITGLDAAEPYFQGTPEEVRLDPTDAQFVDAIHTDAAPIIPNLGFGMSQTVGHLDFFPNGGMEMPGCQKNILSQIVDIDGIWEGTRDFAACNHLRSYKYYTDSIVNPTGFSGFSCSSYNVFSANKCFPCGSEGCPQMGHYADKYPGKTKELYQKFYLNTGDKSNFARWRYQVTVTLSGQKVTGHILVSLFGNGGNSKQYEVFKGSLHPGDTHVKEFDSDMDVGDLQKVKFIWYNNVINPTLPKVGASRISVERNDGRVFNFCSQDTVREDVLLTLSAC
The experiment in a line: Inhibition of rat pancreatic lipase in vitro. Type of assay: biochemical. The following applies: 14C-triolein emulsion, pH 8.6, 20 min at 37° C. The procedure: Dietary long-chain triglycerides must be hydrolyzed by pancreatic lipase in the duodenum before absorption can occur. […] The capacity of compounds B and C to inhibit rat pancreatic lipase in vitro was investigated. The ability of compounds to inhibit rat pancreatic lipase is determined by analyzing the nmoles of free fatty acid [oleic acid] released from [^14 C]-triolein. Compounds of B and C are added to an emulsion consisting of: 200,000 dpm ^14 C-triolein, 7.5 mg triolein, 0.75 mg sodium taurocholate, 15 mg bovine serum albumin and 0.9 ml 0.2 M tris-HCl - 0.15 M NaCl, pH 8.6, per assay. Water and/or pancreatic lipase is added to make an assay volume of 1.0 ml. The emulsion is incubated for 20 min at 37° C. in a shaking water bath. The reaction is stopped by the addition of isopropanol; H2 SO4 (40:1). The lipids are extracted twice with 3 ml volumes of hexane. The liberated fatty acids are extracted with 2 ml of 0.1 N KOH in 50% methanol. A 1 ml aliquot of the KOH layer is placed in a scintillation vial with 10 ml of 2,5-bis-2- (5-tertiarybutyl benzoxazolyl)thiophene. The radioactivity is determined in a scintillation counter. Data are expressed as nmoles free fatty acid [oleic acid] released.

A further assay concerns triglyceride absorption. The experiment in a line: Inhibition of absorption of dietary triglyceride after oral corn oil load. The class given is in vivo, rats. The method, then:
The ability of compound A to inhibit the absorption of dietary triglyceride in rats is determined by analyzing the rise in serum triglycerides after an oral load of corn oil. To 24 hours fasted rats (6 per group), compound A was administered orally at 1.1 mmoles/kg 15 minutes before a single oral dose of corn oil ([…]). Blood samples (0.4 ml) were collected from the rat tail 0, 2, 4, 6, 8 and 24 hours after compound administration. Each rat is its own control. Plasma samples were analyzed for triglyceride content by the procedure set forth in Kessler and H. Lederer, Tehnicon Symposium 1965 Automation in Analytical Chemistry Ed. L. Skeggs, published Mediad Inc. N.Y. (1966)pp341. The data in Table V is expressed as mg% change in plasma triglyceride levels compared to zero time control values at each time interval. This change in plasma triglycerides was determined by calculating the difference between the triglyceride level at each time point compared to zero time control level.
The procedure of Example 4 was followed except groups of 4 were utilized. Compound B was administered.

Regarding `C[C@H](CCC(=O)O)[C@H]1CC[C@H]2[C@@H]3CC[C@@H]4C[C@H](O)CC[C@]4(C)[C@H]3C[C@H](O)[C@]12C` [deoxycholic acid, 3α, 12α-dihydroxy-5β-cholanic acid], the “effect on the activity of cholesterol-7α-hydroxylase” value in assay [1] is listed as “adverse effect”. Also, in the assay with bile flow [2], the “% increase in Bile Flow, 0-12 hours” value is given as “+335%” and the “% increase in Bile Flow, overall 24 hour period” value was “+219%”.

Usually Ki stands for the dissociation constant of the complex between target and ligand, obtained from inhibition or displacement. Low values mean tighter binding, high ones weaker binding. `C[C@H](CC(=O)O)[C@H]1CC[C@H]2[C@@H]3CC[C@@H]4C[C@H](O)CC[C@]4(C)[C@H]3C[C@H](O)[C@]12C` [Compound C, 3α, 12α-dihydroxy-5-β-norcholanic acid]: in the assay on bile flow [3], the “% increase of Bile Flow, 0-8 hours” value is listed as “+4%” and the “% increase of Bile Flow, 9-24 hours” value is “+30%”. Further, in assay [4], the “% decrease of cholesterol, 0-8 hours” value amounted to 40% and the “% decrease of cholesterol, 9-24 hours” value is 53%. The compound further came in with a Ki at rat pancreatic lipase of 1 mM.

Take `C[C@H](CCC(=O)O)[C@H]1CC[C@H]2[C@@H]3[C@H](O)C[C@@H]4C[C@H](O)CC[C@]4(C)[C@H]3C[C@H](O)[C@]12C` [cholic acid, 3α, 7α, 12α-trihydroxy-5β-cholanic acid]: the “effect on the activity of cholesterol-7α-hydroxylase” value in assay [1] is listed as “adverse effect”. In the assay on bile flow [2], the “% increase in Bile Flow, 0-12 hours” value is on record as “+161%” and the “% increase in Bile Flow, overall 24 hour period” value was “+38%”.

In the case of `C[C@H](CCC(=O)O)[C@H]1CC[C@H]2[C@@H]3[C@H](O)C[C@@H]4C[C@H](O)CC[C@]4(C)[C@H]3CC[C@]12C` [CDC, chenodeoxycholic acid], in the assay with bile flow [2], the “% increase in Bile Flow, 0-12 hours” value is listed as “+504%”; the “% increase in Bile Flow, 13-24 hours” value was “+9%”; the “% increase in Bile Flow, overall 24 hour period” value is reported as “+513%”.

For `C[C@]12CC[C@@H](O)C[C@H]1CC[C@@H]1[C@@H]2C[C@H](O)[C@]2(C)[C@@H](C(=O)O)CC[C@@H]12` [Compound A, 3α, 12α-dihydroxy-etiocholane-17β-carboxylicacid], in the assay on bile flow [3], the “% increase of Bile Flow, 0-8 hours” value is listed as “+18%” and the “% increase of Bile Flow, 9-24 hours” value is listed as -3%. Further, the “Change in Plasma Triglyceride Levels, 4 hr” value with triglyceride absorption (4 hr, 1.1 mmoles/kg orally, 15 minutes before corn oil, 6 per group, vs zero time) amounted to 50 ± 13 mg%. Also, in the assay with triglyceride absorption (6 hr, 1.1 mmoles/kg orally, 15 minutes before corn oil, 6 per group, vs zero time), the “Change in Plasma Triglyceride Levels, 6 hr” value was determined as 113 ± 34 mg%. In addition, the “Change in Plasma Triglyceride Levels, 8 hr” value with triglyceride absorption (8 hr, 1.1 mmoles/kg orally, 15 minutes before corn oil, 6 per group, vs zero time, *p<0.05) was determined as 164 ± 40 mg%. Besides, the “Change in Plasma Triglyceride Levels, 24 hr” value in the assay on triglyceride absorption (24 hr, 1.1 mmoles/kg orally, 15 minutes before corn oil, 6 per group, vs zero time) is 83 ± 11 mg%. Also, the “Change in Plasma Triglyceride Levels, 2 hr” value in the assay on triglyceride absorption (po, 1100 umol/kg) came out at 37 ± 9 mg%. Besides, in assay [4], the “% decrease of cholesterol, 0-8 hours” value came out at 0% and the “% decrease of cholesterol, 9-24 hours” value turned out to be 79%. In the assay on bile flow [2], the “% increase in Bile Flow, 0-12 hours” value is listed as “+286%”; the “% increase in Bile Flow, 13-24 hours” value was “+79%”; the “% increase in Bile Flow, overall 24 hour period” value is recorded as “+365%”.

In the case of `C[C@H](CCO)[C@H]1CC[C@H]2[C@@H]3CC[C@@H]4C[C@H](O)CC[C@]4(C)[C@H]3C[C@H](O)[C@]12C` [Compound D, 3α, 12α, 23-trihydroxy-5β-24-norcholane], in the assay with bile flow [3], the “% increase of Bile Flow, 0-8 hours” value was “+22%” and the “% increase of Bile Flow, 9-24 hours” value was “+14%”. In assay [4], the “% decrease of cholesterol, 0-8 hours” value worked out at 84% and the “% decrease of cholesterol, 9-24 hours” value is on record as 44%.

With `C[C@H](C(=O)O)[C@H]1CC[C@H]2[C@@H]3CC[C@@H]4C[C@H](O)CC[C@]4(C)[C@H]3C[C@H](O)[C@]12C` [Compound B, 3α, 12α-dihydroxy-5β-23,24-bisnorcholanic acid], in the assay on bile flow [3], the “% increase of Bile Flow, 0-8 hours” value is “+38%” and the “% increase of Bile Flow, 9-24 hours” value is given as “+47%”. The “Change in Plasma Triglycerides, 2 hr” value in the assay with triglyceride absorption (Example 5, 2 hr, procedure of Example 4, groups of 4) is -3 mg%. In addition, the “Change in Plasma Triglycerides, 4 hr” value in the assay with triglyceride absorption (Example 5, 4 hr, procedure of Example 4, groups of 4) came out at 7 mg%. Also, in the assay on triglyceride absorption (Example 5, 6 hr, procedure of Example 4, groups of 4), the “Change in Plasma Triglycerides, 6 hr” value worked out at 15 mg%. For the same compound, the “Change in Plasma Triglycerides, 8 hr” value with triglyceride absorption (Example 5, 8 hr, procedure of Example 4, groups of 4) came out at 54 mg%. The “Change in Plasma Triglycerides, 24 hr” value in the assay with triglyceride absorption (Example 5, 24 hr, procedure of Example 4, groups of 4) is recorded as 30 mg%. In assay [4], the “% decrease of cholesterol, 0-8 hours” value turned out to be 0% and the “% decrease of cholesterol, 9-24 hours” value was determined as 0%. The Ki at rat pancreatic lipase worked out at 14 mM. In the assay with bile flow [2], the “% increase in Bile Flow, 0-12 hours” value was “+517%”; the “% increase in Bile Flow, 13-24 hours” value is listed as “+113%”; the “% increase in Bile Flow, overall 24 hour period” value is reported as “+630%”.
